Biological target: T1, Met receptor (EGFR/Met chimeric cells, EMR) (Homo sapiens, UniProt P08581)
T1 construct: expressed in transfected cells; the other entry of the earlier key: EGFR (P00533, Epidermal growth factor receptor)
Test: Met Autophosphorylation Assay
Format: biochemical
Conditions: protocol P.130
Procedure, shortened: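 Transiently transfected EGFR/Met chimeric (EMR) cells were lysed in HNTG with 1 mM PMSF. Met was captured on plates coated with goat anti-rabbit IgG, then rabbit anti-Met (C-28), using 90 μg lysate/100 μl for 60 min at room temperature. Phosphotyrosine was read by ELISA.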

T1 sequence (P08581 with tags, fused parts or gaps): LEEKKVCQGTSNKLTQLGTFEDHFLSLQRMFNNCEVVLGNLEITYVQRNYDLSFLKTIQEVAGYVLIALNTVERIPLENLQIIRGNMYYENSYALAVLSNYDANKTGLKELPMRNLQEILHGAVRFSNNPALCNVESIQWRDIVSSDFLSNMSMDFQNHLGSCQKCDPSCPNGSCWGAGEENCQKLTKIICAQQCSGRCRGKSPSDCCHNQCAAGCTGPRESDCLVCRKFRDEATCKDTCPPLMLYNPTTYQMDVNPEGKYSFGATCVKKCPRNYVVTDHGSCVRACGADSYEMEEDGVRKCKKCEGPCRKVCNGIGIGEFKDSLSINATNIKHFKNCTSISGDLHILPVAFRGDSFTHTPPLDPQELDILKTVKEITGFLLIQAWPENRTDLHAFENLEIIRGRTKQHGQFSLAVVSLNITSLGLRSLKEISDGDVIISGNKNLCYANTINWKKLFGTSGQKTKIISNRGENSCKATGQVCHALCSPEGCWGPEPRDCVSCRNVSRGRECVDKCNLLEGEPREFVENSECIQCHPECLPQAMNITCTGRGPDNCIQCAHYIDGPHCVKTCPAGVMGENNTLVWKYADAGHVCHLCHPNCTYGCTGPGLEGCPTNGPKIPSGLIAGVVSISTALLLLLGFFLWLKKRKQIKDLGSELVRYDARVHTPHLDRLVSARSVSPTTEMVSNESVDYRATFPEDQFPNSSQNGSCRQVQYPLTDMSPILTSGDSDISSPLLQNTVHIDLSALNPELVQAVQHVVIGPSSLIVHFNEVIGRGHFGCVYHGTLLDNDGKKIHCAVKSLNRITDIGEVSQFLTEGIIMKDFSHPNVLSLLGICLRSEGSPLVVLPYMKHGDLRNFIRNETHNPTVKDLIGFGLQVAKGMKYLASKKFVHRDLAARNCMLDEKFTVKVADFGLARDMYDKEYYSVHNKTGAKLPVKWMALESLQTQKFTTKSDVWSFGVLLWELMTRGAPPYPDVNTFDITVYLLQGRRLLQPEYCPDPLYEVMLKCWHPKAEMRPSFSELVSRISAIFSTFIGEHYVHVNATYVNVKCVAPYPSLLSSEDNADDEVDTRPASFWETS

Structure (SMILES)	Met Kinase % Inhibition (P.130) [%]
O=C1Nc2ccc(S(=O)(=O)Nc3ccc(C(F)(F)F)cc3)cc2C1=Cc1ccc(Oc2ccccc2)cc1 [10737/E09]	21.2
CC(C)(C)c1ccc(Oc2cccc(C=C3C(=O)Nc4ccc(S(=O)(=O)Nc5ccc(C(F)(F)F)cc5)cc43)c2)cc1 [10737/E10]	49.3
O=C1Nc2ccc(S(=O)(=O)Nc3ccc(C(F)(F)F)cc3)cc2C1=Cc1cccc(Oc2cccc(C(F)(F)F)c2)c1 [10737/E11]	24.8
CCOc1ccc(C=C2C(=O)Nc3ccc(S(=O)(=O)N4CCOCC4)cc32)cc1 [10737/F02]	67.4
Cc1ccc(C=C2C(=O)Nc3ccc(S(=O)(=O)N4CCOCC4)cc32)c(C)c1 [10737/F03]	28.0
O=C1Nc2ccc(S(=O)(=O)N3CCOCC3)cc2C1=Cc1cc(F)ccc1F [10737/F04]	62.8
O=C1Nc2ccc(S(=O)(=O)N3CCOCC3)cc2C1=Cc1cccc(F)c1F [10737/F05]	67.1
COc1ccc(C=C2C(=O)Nc3ccc(S(=O)(=O)N4CCOCC4)cc32)cc1F [10737/F06]	62.8
Cc1ccc(C)c(C=C2C(=O)Nc3ccc(S(=O)(=O)N4CCOCC4)cc32)c1 [10737/F07]	33.3
O=C1Nc2ccc(S(=O)(=O)N3CCOCC3)cc2C1=Cc1ccc2ccccc2c1 [10737/F08]	76.1
O=C1Nc2ccc(S(=O)(=O)N3CCOCC3)cc2C1=Cc1ccc(Oc2ccccc2)cc1 [10737/F09]	76.5
CC(C)(C)c1ccc(Oc2cccc(C=C3C(=O)Nc4ccc(S(=O)(=O)N5CCOCC5)cc43)c2)cc1 [10737/F10]	78.6
O=C1Nc2ccc(S(=O)(=O)N3CCOCC3)cc2C1=Cc1cccc(Oc2cccc(C(F)(F)F)c2)c1 [10737/F11]	75.6
CCOc1ccc(C=C2C(=O)Nc3ccc(CCCl)cc32)cc1 [10737/G02]	32.2
Cc1ccc(C=C2C(=O)Nc3ccc(CCCl)cc32)c(C)c1 [10737/G03]	37.4
O=C1Nc2ccc(CCCl)cc2C1=Cc1cc(F)ccc1F [10737/G04]	49.1
O=C1Nc2ccc(CCCl)cc2C1=Cc1cccc(F)c1F [10737/G05]	53.2
COc1ccc(C=C2C(=O)Nc3ccc(CCCl)cc32)cc1F [10737/G06]	50.7
Cc1ccc(C)c(C=C2C(=O)Nc3ccc(CCCl)cc32)c1 [10737/G07]	41.8
O=C1Nc2ccc(CCCl)cc2C1=Cc1ccc2ccccc2c1 [10737/G08]	31.2
O=C1Nc2ccc(CCCl)cc2C1=Cc1ccc(Oc2ccccc2)cc1 [10737/G09]	37.9
CC(C)(C)c1ccc(Oc2cccc(C=C3C(=O)Nc4ccc(CCCl)cc43)c2)cc1 [10737/G10]	22.8
O=C1Nc2ccc(CCCl)cc2C1=Cc1cccc(Oc2cccc(C(F)(F)F)c2)c1 [10737/G11]	35.1
CCOc1ccc(C=C2C(=O)Nc3c(Br)cc(Br)c(C)c32)cc1 [10737/H02]	42.9
Cc1ccc(C=C2C(=O)Nc3c(Br)cc(Br)c(C)c32)c(C)c1 [10737/H03]	46.1
Cc1c(Br)cc(Br)c2c1C(=Cc1cc(F)ccc1F)C(=O)N2 [10737/H04]	63.0
Cc1c(Br)cc(Br)c2c1C(=Cc1cccc(F)c1F)C(=O)N2 [10737/H05]	76.5
COc1ccc(C=C2C(=O)Nc3c(Br)cc(Br)c(C)c32)cc1F [10737/H06]	28.7

From patent US20020026053A1, “Novel 3-(substituted) -2- indolinones compounds and use thereof as inhibitors of protein kinase activity” (priority 1997, published 2002)
